Each structure is given as a SMILES string.

Assay [1] relates to Barnyardgrass (Echinochloa crus-galli). In words: Postemergence herbicidal activity. Particulars: visual score after 2 weeks, 0 = no injury, 100 = complete kill. The assay is classed as in vivo. Here is the method:
(§1) Seeds of the desired test plant species were planted in Grace-Sierra MetroMix® 306 planting mixture, which typically has a pH of 6.0 to 6.8 and an organic matter content of about 30 percent, in plastic pots with a surface area of 64 square centimeters. […] The plants were grown for 7-21 days in a greenhouse with an approximate 15 hr photoperiod which was maintained at about 23-29° C. during the day and 22-28° C. during the night. Nutrients and water were added on a regular basis and supplemental lighting was provided with overhead metal halide 1000-Watt lamps as necessary. The plants were employed for testing when they reached the first or second true leaf stage.
(§2) A weighed amount, determined by the highest rate to be tested, of each test compound was placed in a 20 mL glass vial and was dissolved in 4 mL of a 97:3 v/v (volume/volume) mixture of acetone and dimethyl sulfoxide (DMSO) to obtain concentrated stock solutions. […] The concentrated stock solutions obtained were diluted with an aqueous mixture containing acetone, water, isopropyl alcohol, DMSO, Atplus 411F crop oil concentrate, and Triton X-155 surfactant in a 48.5:39:10:1.5:1.0:0.02 v/v ratio to obtain spray solutions of known concentration. The solutions containing the highest concentration to be tested were prepared by diluting 2 mL aliquots of the stock solution with 13 mL of the mixture and lower concentrations were prepared by serial dilution of the stock solution. Approximately 1.5 mL aliquots of each solution of known concentration were sprayed evenly onto each of the test plant pots using a DeVilbiss atomizer driven by compressed air pressure of 2 to 4 psi (140 to 280 kiloPascals) to obtain thorough coverage of each plant. Control plants were sprayed in the same manner with the aqueous mixture. In this test an application rate of 1 ppm results in the application of approximately 1 g/Ha.
(§3) The treated plants and control plants were placed in a greenhouse as described above and watered by sub-irrigation to prevent wash-off of the test compounds. After 2 weeks the condition of the test plants as compared with that of the untreated plants was determined visually and scored on a scale of 0 to 100 percent where 0 corresponds to no injury and 100 corresponds to complete kill.

In assay [2] the test system is Cocklebur (Xanthium strumarium). In words: Postemergence herbicidal activity. Type of assay: in vivo. Particulars: visual score after 2 weeks, 0 = no injury, 100 = complete kill. Here is the method:
as §1, §2, §3

The test system of assay [3] is Giant Foxtail (Setaria faberi). In words: Postemergence herbicidal activity. Type of assay: in vivo. Particulars: visual score after 2 weeks, 0 = no injury, 100 = complete kill. Here is the method:
as §1, §2, §3

The test system of assay [4] is Lambsquarter (Chenopodium album). Put plainly: Postemergence herbicidal activity. Type of assay: in vivo. Particulars: visual score after 2 weeks, 0 = no injury, 100 = complete kill. Here is the method:
as §1, §2, §3

Assay [5] deals with Pigweed (redroot) (Amaranthus retroflexus). Particulars: rate 123 (unit not given); visual score after 2 weeks, 0 = no injury, 100 = complete kill. Here is the method: as §1
(§4) A weighed amount, determined by the highest rate to be tested, of each test compound was placed in a 20 mL glass vial and was dissolved in 4 mL of a 97:3 v/v (volume/volume) mixture of acetone and dimethyl sulfoxide (DMSO) to obtain concentrated stock solutions. […]
as §3

The subject of assay [6] is Wheat (var.Merica) (Triticum aestivum). Particulars: rate 123 (unit not given); crop selectivity to wheat; visual score after 2 weeks, 0 = no injury, 100 = complete kill. Here is the method: as §1, §4, §3
Assay [7] deals with Crabgrass (large) (Digitaria sanguinalis). In words: Preemergence herbicidal activity. Type of assay: in vivo. Particulars: rate 560 ppm; visual score after 3 weeks, 0 = no injury, 100 = complete kill or no germination. Here is the method:
(§5) The soil matrix was contained in plastic pots with a surface area of 113 square centimeters. […] The stock solutions obtained were diluted with a 99.9:0.1 mixture of water and Tween® […] surfactant to obtain application solutions of known concentration. […] A 2.5 mL aliquot of each solution of known concentration was sprayed evenly onto the soil surface (113 sq. cm) of each seeded pot using a Cornwall 5.0 mL glass syringe fitted with a TeeJet TN-3 hollow cone nozzle to obtain thorough coverage of the soil in each pot. […] The water was added by top-irrigation.

Assay [8] relates to Giant Foxtail (Setaria faberi). Put plainly: Preemergence herbicidal activity. Particulars: rate 560 ppm; visual score after 3 weeks, 0 = no injury, 100 = complete kill or no germination. The assay is classed as in vivo. Here is the method:
as §5

Assay [9] deals with Ivyleaf Morningglory (Ipomoea hederacea). In words: Preemergence herbicidal activity. The assay is classed as in vivo. Particulars: rate 560 ppm; visual score after 3 weeks, 0 = no injury, 100 = complete kill or no germination. Here is the method:
as §5

The test system of assay [10] is Lambsquarter (Chenopodium album). Put plainly: Preemergence herbicidal activity. The assay is classed as in vivo. Particulars: rate 560 ppm; visual score after 3 weeks, 0 = no injury, 100 = complete kill or no germination. Here is the method:
as §5

For the compound `COC(=O)c1nc(C(C)(F)F)cc(N)c1Cl` [Compound 1, Methyl 4-amino-3-chloro-6-(1,1-difluroethyl)pyridine-2-carboxylate], the “Post-emergent (% injury) ECHCG” value in assay [1] (rate 245 ppm) was 75%. For the same compound, in assay [2] (rate 245 ppm), the “Post-emergent (% injury) XANST” value was 100%. Moreover, in assay [3] (rate 245 ppm), the “Post-emergent (% injury) SETFA” value is listed as 65%. In addition, the “Post-emergent (% injury) CHEAL” value in assay [4] (rate 123 (unit not given)) and in assay [4] (rate 245 ppm) was 100% each time. The “Post-emergent (% injury) AMARE” value in assay [5] was 100%. In [6], the “Post-emergent (% injury) TRZAS” value was determined as 0%. The “Pre-emergent (% injury) DIGSA” value in assay [7] was determined as 100%. The “Pre-emergent (% injury) SETFA” value in [8] stood at 100%. Further, the “Pre-emergent (% injury) IPOHE” value in [9] stood at 100%. Also, the “Pre-emergent (% injury) CHEAL” value in [10] turned out to be 100%.
In the case of `CC(F)(F)c1cc(N)c(Cl)c(C(=O)O)n1` [Compound 2, 4-amino-3-chloro-6-(1,1-difluoroethyl)pyridine-2-carboxylic acid], the “Post-emergent (% injury) ECHCG” value in [1] (rate 250 ppm) turned out to be 80%. Also, the “Post-emergent (% injury) XANST” value in [2] (rate 250 ppm) came to 100%. Besides, the “Post-emergent (% injury) SETFA” value in assay [3] (rate 250 ppm) came out at 85%. For the same compound, the “Post-emergent (% injury) CHEAL” value in assay [4] (rate 250 ppm) is listed as 100%. For the same compound, the “Pre-emergent (% injury) DIGSA” value in assay [7] turned out to be 98%. The “Pre-emergent (% injury) SETFA” value in assay [8] is on record as 95%. Besides, the “Pre-emergent (% injury) IPOHE” value in [9] amounted to 100%. In addition, the “Pre-emergent (% injury) CHEAL” value in assay [10] turned out to be 100%.

The values above are taken from patent publication US7291580B2, “6-(1,1-difluoroalkyl)-4-aminopicolinates and their use as herbicides” (Dow AgroSciences LLC, priority 2004, dated 2007).
